According to patent publication US10202370B2, “Benzimidazole derivatives as selective proteine kinase inhibitors” (AB SCIENCE, priority 2013, dated 2019):
pIC50: −log10 of the molar value.

Molecular target: c-kit WT (Homo sapiens (Human), UniProt P10721)
Assay: Proliferation assay (CellTiter-Blue) on BaF3 Kit WT cell line
Type: cell-based
Conditions: BaF3 Kit WT cell line (murine Ba/F3 expressing Human Kit WT, with murine SCF), 48 hours
Experimental: Procedures of C-Kit WT Inhibition Assays:
Colorimetric cell proliferation and viability assay (reagent CellTiter-Blue purchased from Promega cat N°G8081) was performed on BaF3 Kit WT cell line.
A total of 2.10^4 cells/50 μl were seeded per well of a 96-wells plate. Treatment was initiated by addition of a 2× drug solution of ½ serial dilutions ranging from 0 to 10 μM. After incubating for 48 hours at 37° C., 10 μl of a ½ dilution of CellTiter-Blue reagent was added to each well and the plates were returned to the incubator for an additional 4 hours. The fluorescence intensity from the CellTiter-Blue reagent is proportional to the number of viable cells and data were recorded (544Ex/590Em) using a POLARstar OMEGA microplate reader (BMG LabteckSarl). A background control without cells was used as a blank. The positive control of the assay corresponds to the cell proliferation obtained in the absence of drug treatment (100% proliferation). Each sample was done in triplicate. The results were expressed as a percentage of the proliferation obtained in absence of treatment. All drugs were prepared as 20 mM stock solutions in DMSO and conserved at −80° C. Drug dilutions were made fresh in medium before each experiment. A DMSO control was included in each experiment.
The cell line expressing Human Kit WT was derived from the murine IL3-dependent Ba/F3 proB lymphoid cells. Ba/F3 Kit WT cells were maintained in RPMI medium containing 10% FCS and supplemented with 250 ng/ml of recombinant murine SCF.

c-kit WT, sequence (P10721 26-976): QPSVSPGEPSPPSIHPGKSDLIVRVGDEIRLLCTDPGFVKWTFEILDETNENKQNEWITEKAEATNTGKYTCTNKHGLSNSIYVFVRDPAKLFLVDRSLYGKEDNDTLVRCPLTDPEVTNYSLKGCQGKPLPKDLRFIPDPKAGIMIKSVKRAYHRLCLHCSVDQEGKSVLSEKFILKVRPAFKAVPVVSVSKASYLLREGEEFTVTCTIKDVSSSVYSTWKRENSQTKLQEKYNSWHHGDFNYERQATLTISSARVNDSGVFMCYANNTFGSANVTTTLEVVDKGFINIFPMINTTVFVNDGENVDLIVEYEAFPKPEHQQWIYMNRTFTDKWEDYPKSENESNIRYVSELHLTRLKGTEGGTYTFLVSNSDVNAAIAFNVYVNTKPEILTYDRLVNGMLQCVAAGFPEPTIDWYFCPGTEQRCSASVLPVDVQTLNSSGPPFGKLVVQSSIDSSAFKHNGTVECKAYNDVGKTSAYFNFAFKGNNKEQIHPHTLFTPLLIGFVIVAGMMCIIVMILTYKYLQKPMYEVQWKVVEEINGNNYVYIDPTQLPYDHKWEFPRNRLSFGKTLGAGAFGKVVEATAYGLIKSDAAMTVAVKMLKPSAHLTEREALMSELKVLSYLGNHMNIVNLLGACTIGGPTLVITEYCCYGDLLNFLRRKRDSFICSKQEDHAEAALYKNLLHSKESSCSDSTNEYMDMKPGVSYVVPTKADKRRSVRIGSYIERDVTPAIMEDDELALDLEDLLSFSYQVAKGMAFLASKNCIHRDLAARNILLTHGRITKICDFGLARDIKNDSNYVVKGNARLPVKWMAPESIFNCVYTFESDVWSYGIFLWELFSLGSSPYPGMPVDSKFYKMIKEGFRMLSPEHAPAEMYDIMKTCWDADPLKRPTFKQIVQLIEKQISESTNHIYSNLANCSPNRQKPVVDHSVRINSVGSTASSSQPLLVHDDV

| SMILES | pIC50 |
| --- | --- |
| Cc1cc2nc(-c3ccc(CN4CCN(C)CC4)cc3)[nH]c2cc1Nc1nc(-c2ccncc2)cs1 [Compound 048, {6-Methyl-2-[4-(4-methyl-piperazin-1-ylmethyl)-phenyl]-1H-benzoimidazol-5-yl}-(4-pyridin-4-yl-thiazol-2-yl)-amine] | 5.00 to 6.00 |
| Cc1cc2nc(-c3cncc(C(F)(F)F)c3)[nH]c2cc1Nc1nc(-c2cccnc2)cs1 [Compound 049, [6-Methyl-2-(5-trifluoromethyl-pyridin-3-yl)-3H-benzoimidazol-5-yl]-(4-pyridin-3-yl-thiazol-2-yl)-amine] | ≥ 6.00 |
| Cc1cc2nc(Cc3cccc(C(F)(F)F)c3)[nH]c2cc1Nc1ncc(-c2ccncc2)o1 [Compound 051, [6-Methyl-2-(3-trifluoromethyl-benzyl)-3H-benzoimidazol-5-yl]-(5-pyridin-4-yl-oxazol-2-yl)-amine] | 5.00 to 6.00 |
| Cc1cc2nc(Cc3cccc(F)c3)[nH]c2cc1Nc1ncc(-c2ccncc2)o1 [Compound 052, [2-(3-Fluoro-benzyl)-6-methyl-3H-benzoimidazol-5-yl]-(5-pyridin-4-yl-oxazol-2-yl)-amine] | 5.00 to 6.00 |
| Cc1cc2nc(Cc3ccc(C(F)(F)F)cc3)[nH]c2cc1Nc1ncc(-c2ccncc2)o1 [Compound 054, [6-Methyl-2-(4-trifluoromethyl-benzyl)-3H-benzoimidazol-5-yl]-(5-pyridin-4-yl-oxazol-2-yl)-amine] | 5.00 to 6.00 |
| Cc1cc2nc(-c3ccc(C)c(C(F)(F)F)c3)[nH]c2cc1Nc1nc(-c2cccnc2)cs1 [Compound 056, [6-Methyl-2-(4-methyl-3-trifluoromethyl-phenyl)-3H-benzoimidazol-5-yl]-(4-pyridin-3-yl-thiazol-2-yl)-amine] | ≥ 6.00 |
| Cc1cc2nc(-c3ccc(-n4cccn4)cc3)[nH]c2cc1Nc1nc(-c2cccnc2)cs1 [Compound 057, [6-Methyl-2-(4-pyrazol-1-yl-phenyl)-3H-benzoimidazol-5-yl]-(4-pyridin-3-yl-thiazol-2-yl)-amine] | ≥ 6.00 |
| Cc1cc2nc(-c3cc(F)cc(C(F)(F)F)c3)[nH]c2cc1Nc1nc(-c2cccnc2)cs1 [Compound 058, [2-(3-Fluoro-5-trifluoromethyl-phenyl)-6-methyl-3H-benzoimidazol-5-yl]-(4-pyridin-3-yl-thiazol-2-yl)-amine] | ≥ 6.00 |
| Cc1cc2nc(-c3ccc(Cl)cc3)[nH]c2cc1Nc1nc(-c2cccnc2)cs1 [Compound 059, [2-(4-Chloro-phenyl)-6-methyl-1H-benzoimidazol-5-yl]-(4-pyridin-3-yl-thiazol-2-yl)-amine] | 5.00 to 6.00 |

Results, then the molecule that gave them:

| pIC50 | SMILES |
| --- | --- |
| ≥ 6.00 | Cc1cc2nc(-c3ccc(C(F)(F)F)cc3)[nH]c2cc1Nc1nc(-c2ccncc2)cs1 [Compound 050, [6-Methyl-2-(4-trifluoromethyl-phenyl)-3H-benzoimidazol-5-yl]-(4-pyridin-4-yl-thiazol-2-yl)-amine] |
| 5.00 to 6.00 | Cc1cc2nc(-c3cccc(C(F)(F)F)c3)[nH]c2cc1Nc1ncc(-c2ccncc2)o1 [Compound 053, [6-Methyl-2-(3-trifluoromethyl-phenyl)-3H-benzoimidazol-5-yl]-(5-pyridin-4-yl-oxazol-2-yl)-amine] |
| 5.00 to 6.00 | Cc1cc2nc(CN3CCOCC3)[nH]c2cc1Nc1ncc(-c2ccncc2)o1 [Compound 055, (6-Methyl-2-morpholin-4-ylmethyl-3H-benzoimidazol-5-yl)-(5-pyridin-4-yl-oxazol-2-yl)-amine] |
| 5.00 to 6.00 | Cc1cc2nc(-c3ccc(F)cc3)[nH]c2cc1Nc1nc(-c2cccnc2)cs1 [Compound 060, [2-(4-Fluoro-phenyl)-6-methyl-1H-benzoimidazol-5-yl]-(4-pyridin-3-yl-thiazol-2-yl)-amine] |
| ≥ 6.00 | Cc1cc2nc(-c3cccc(C(F)F)c3)[nH]c2cc1Nc1nc(-c2cncnc2)cs1 [Compound 061, [2-(3-Difluoromethyl-phenyl)-6-methyl-3H-benzoimidazol-5-yl]-(4-pyrimidin-5-yl-thiazol-2-yl)-amine] |
